According to patent publication US20130059900A1, “CRYSTAL FORM I OF (S)-4-HYDROXY-2-OXO-1-PYRROLIDINE ACETAMIDE, PREPARING METHOD AND USE THEREOF” (priority 2010, published 2013):

Tested on: rats having permanent occlusion of the bilateral carotid arteries
Test: Morris Water Maze, memory dysfunction of rats caused by chronic cerebral ischemia
Type: in vivo, SD male rats
Settings: once per day for 37 days; for swimming time of the rats in the target: cerebral ischemia rats
Experimental: The protective effects of crystal form I of (S)-oxiracetam on memory dysfunction of rats caused by chronic cerebral ischemia. Material and method: The crystal form I of (S)-oxiracetam prepared in Example 1 and oxiracetam (batch number: 20071101, from Dong Ze Pharmaceutical Science and Technology Co., Ltd., Chong Qing, China) were prepared with normal saline solution freshly on being used. 40 SD male rats were used as experimental animals, and each of them was in a weight of 190 g to 220 g (purchased from Southwest Hospital, Chong Qing, China). The experimental animals were separated into four groups at random (10 animals per group): sham-operation group, cerebral ischemia group, experimental group with treatment of crystal form I of (S)-oxiracetam, control group with treatment of oxiracetam. The experimental group was treated with 100 mg/kg crystal form I of (S)-oxiracetam by intragastric administration, while the control group was treated with 200 mg/kg oxiracetam by intragastric administration, and both of the two group were treated once per day for 37 days since the day of beginning the surgery. The rats having permanent occlusion of the bilateral carotid arteries were used as model animals of cerebral ischemia group. The cerebral ischemia group, the experimental group and the control group were abdominally anaesthetized by 40 mg/kg pentobarbital natrium. The No. 4 threads were used to separate and ligate the bilateral carotid arteries. The arteries were cut at a position between the near and the far ligation points, and then the wounds made by cut were surgically stitched. The sham-operation group underwent surgery of separation of the bilateral carotid arteries and the wounds made by the surgeries were surgically stitched right away. The body temperature of the animals are maintained during the surgeries. Morris Water Maze system was used to assayed learning and memory ability of rats (diameter: 120 cm, height: 40 cm; purchased from Institute of Materia Medica (IMM), Chinese Academy of Medical Sciences & Peking Union Medical College). […]

NC(=O)CN1CC(O)CC1=O (racemic) [oxiracetam, reference compound]
swimming time of the rats in the target (200 mg/kg intragastric, oxiracetam control group): 31.23 ± 5.03 s

NC(=O)CN1C[C@@H](O)CC1=O [crystal form I of (S)-oxiracetam, (S)-4-hydroxy-2-oxo-1-pyrrolidine acetamide]
swimming time of the rats in the target (100 mg/kg intragastric, vs 20.18±5.26 seconds, P<0.01): 35.23 ± 7.03 s | escape latent periods (100 mg/kg intragastric, compared with sham-operation group, cerebral ischemia group and oxiracetam control group): shorter escape latent periods
